# Data from patent publication US7576087B2, “Heterocyclyl-3-sulfonylazaindole or -azaindazole derivatives as 5-hydroxytryptamine-6 ligands” (Wyeth, priority 2003, dated 2009).
# Structures can show the parent of a compound that is named as a salt.
# Target: human cloned 5-HT6 receptors (Homo sapiens, UniProt P50406)
# Sequence (P50406 whole entry): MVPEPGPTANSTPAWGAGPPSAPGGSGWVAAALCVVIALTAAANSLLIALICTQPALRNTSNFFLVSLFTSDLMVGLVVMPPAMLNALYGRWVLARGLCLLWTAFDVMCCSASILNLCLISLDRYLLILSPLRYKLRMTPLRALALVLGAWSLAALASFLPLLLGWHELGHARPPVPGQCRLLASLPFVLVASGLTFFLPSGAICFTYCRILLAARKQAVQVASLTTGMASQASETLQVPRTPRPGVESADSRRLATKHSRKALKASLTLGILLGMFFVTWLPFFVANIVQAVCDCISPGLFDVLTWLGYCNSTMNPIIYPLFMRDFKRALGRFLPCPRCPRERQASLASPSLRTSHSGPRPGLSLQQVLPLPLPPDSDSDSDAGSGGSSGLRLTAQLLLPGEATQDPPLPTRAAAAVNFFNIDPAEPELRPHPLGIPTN
row,Compound,Ki [nM]
1,"O=S(=O)(c1ccccc1)c1c[nH]c2ccc(N3CCN(Cc4ccccc4)CC3)nc12 [Example 8, 5-(4-Benzylpiperazin-1-yl)-3-(phenylsulfonyl)-1H-pyrrolo[3,2-b]pyridine]",30
2,"CN1CCN(c2ccc3[nH]nc(S(=O)(=O)c4ccccc4)c3n2)CC1 [Example 4, 5-(4-methylpiperazin-1-yl)-3-(phenylsulfonyl)-1H-pyrazolo-[4,3-b]pyridine hydrochloride]",34
3,"O=S(=O)(c1ccccc1)c1c[nH]c2ccc(N3CCNCC3)nc12 [Example 9, 3-(Phenylsulfonyl)-5-piperazin-1-yl-1H-pyrrolo[3,2-b]pyridine Dihydrochloride]",2
